Experimental findings from patent publication US20020115611A1, “Methods for screening GABA-modulatory compounds for specified pharmacological activities” (priority 1999, published 2002) are described below.

Like-named read-outs stand apart in the source and are kept apart here.

Series [1] addresses α2β3γ2 GABAA subtype receptor (Homo sapiens, UniProt P18507+P47869). The series can be described thus: cell-based. The conditions noted are these: for EC50: human subunits, GABA at EC10. From the text:
(§1) The in vitro efficacy and EC50 value of the test compound may be determined by measuring the chloride flux at the surface of a cell expressing the α,β, and γ subunits of the GABAA receptor in response to GABA by the two electrode voltage-clamp technique. While a variety of cells are suitable for use herein, the preferred cells used in this technique are Xenopus laevis oocytes that have been injected with non-polyadenylated CRNA coding for human derived α, βand γ GABAA subunits. The preferred form of the γ subunit is the normally expressed long form although an alternatively spliced form may be used.
(§2) Assays are carried out as described previously in White and Gurley, 1995 and White, et al., 1995. Xenopus laevis oocytes are enzymatically isolated and injected with non-polyadenylated cRNA for human derived α, β and γ GABAA subunits, respectively. In more preferred embodiments cRNA for the α1β2γ2, α2β3γ2, α3β3γ2, and α5β3γ2 subunit combinations are injected. Only one of these subunit combinations is injected per cell. For each subunit combination, sufficient message is injected to result in current amplitudes of >10 nA when 1 μM GABA is applied. Electrophysiological recordings are carried out using the two electrode voltage-clamp technique at a membrane holding potential of −70 mV.
(§3) Compounds are evaluated against a GABA concentration that evokes <10% (EC10) of the maximal evocable GABA current. Each oocyte is exposed to increasing concentrations of compound in order to evaluate a concentration/effect relationship.
(§4) Specificity of a compound for the Ro15-1788 site is determined following completion of the concentration/effect curve. After washing the oocyte sufficiently to remove previously applied compound, the oocyte is exposed to GABA and 1 μM Ro15-1788, followed by exposure to GABA, 1 μM Ro15-1788, and compound. Percent change due to addition of compound is calculated as described above. Any percent change observed in the presence of Ro15-1788 is subtracted from the percent changes in current amplitude observed in the absence of 1 μM Ro15-1788. These net values are used for the calculation of average activity and EC50 values.
(§5) To evaluate average activity and EC50 values, the concentration/effect data are averaged across cells and fit to the logistic equation. Average values are reported as mean±standard error.

In series [2] the target is α1β2γ2 GABAA subtype receptor (Homo sapiens, UniProt P14867+P18507). The series can be described thus: cell-based.
Sequence of α1β2γ2 GABAA subtype receptor (P14867 28-456): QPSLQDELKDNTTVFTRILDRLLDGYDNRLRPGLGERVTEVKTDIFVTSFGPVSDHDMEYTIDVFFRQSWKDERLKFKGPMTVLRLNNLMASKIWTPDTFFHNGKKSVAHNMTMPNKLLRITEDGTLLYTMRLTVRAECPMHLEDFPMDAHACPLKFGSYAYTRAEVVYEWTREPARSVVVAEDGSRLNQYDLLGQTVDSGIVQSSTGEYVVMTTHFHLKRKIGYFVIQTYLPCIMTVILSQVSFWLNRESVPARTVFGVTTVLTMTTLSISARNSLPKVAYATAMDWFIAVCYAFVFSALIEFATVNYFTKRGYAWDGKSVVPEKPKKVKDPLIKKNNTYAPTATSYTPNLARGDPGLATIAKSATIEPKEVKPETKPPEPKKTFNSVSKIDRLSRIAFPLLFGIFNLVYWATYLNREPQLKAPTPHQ
Sequence of α1β2γ2 GABAA subtype receptor (P47870 25-512 partner limits assumed): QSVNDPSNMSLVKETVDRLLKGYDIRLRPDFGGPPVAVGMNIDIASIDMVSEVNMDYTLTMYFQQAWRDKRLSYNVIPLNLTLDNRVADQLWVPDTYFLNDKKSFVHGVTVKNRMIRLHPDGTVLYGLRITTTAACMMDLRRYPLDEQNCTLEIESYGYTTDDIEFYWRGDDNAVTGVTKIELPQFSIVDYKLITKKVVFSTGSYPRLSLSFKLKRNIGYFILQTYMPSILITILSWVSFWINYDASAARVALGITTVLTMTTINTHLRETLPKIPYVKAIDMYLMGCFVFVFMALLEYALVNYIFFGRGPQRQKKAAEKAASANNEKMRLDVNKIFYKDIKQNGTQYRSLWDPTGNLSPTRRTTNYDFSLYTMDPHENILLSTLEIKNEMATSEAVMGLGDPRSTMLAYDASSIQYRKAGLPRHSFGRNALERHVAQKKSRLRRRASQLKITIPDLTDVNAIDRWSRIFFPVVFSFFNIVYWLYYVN
Sequence of α1β2γ2 GABAA subtype receptor (P18507 40-475): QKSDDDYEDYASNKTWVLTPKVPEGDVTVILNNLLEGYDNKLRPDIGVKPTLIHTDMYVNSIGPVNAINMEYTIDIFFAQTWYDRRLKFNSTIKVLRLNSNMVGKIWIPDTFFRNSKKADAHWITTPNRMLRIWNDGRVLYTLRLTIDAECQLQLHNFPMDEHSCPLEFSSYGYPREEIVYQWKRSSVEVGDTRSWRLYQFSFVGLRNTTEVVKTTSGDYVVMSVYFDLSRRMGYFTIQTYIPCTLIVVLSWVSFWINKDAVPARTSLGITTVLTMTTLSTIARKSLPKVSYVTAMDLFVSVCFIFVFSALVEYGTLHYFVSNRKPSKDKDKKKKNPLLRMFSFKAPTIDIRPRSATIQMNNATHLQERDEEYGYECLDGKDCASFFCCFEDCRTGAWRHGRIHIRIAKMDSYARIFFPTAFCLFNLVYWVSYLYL
Excerpt: as §1, §2, §3, §4, §5

Series [3] has as its target α3β3γ2 GABAA subtype receptor (Homo sapiens, UniProt P18507+P34903). In words: cell-based. The conditions noted are these: human subunits, GABA at EC10.
Excerpt: as §1, §2, §3, §4, §5

In series [4] the target is α5β3γ2 GABAA subtype receptor (Homo sapiens, UniProt P18507+P31644). The series can be described thus: cell-based. Conditions: human subunits, GABA at EC10.
Sequence of α5β3γ2 GABAA subtype receptor (P31644 32-462): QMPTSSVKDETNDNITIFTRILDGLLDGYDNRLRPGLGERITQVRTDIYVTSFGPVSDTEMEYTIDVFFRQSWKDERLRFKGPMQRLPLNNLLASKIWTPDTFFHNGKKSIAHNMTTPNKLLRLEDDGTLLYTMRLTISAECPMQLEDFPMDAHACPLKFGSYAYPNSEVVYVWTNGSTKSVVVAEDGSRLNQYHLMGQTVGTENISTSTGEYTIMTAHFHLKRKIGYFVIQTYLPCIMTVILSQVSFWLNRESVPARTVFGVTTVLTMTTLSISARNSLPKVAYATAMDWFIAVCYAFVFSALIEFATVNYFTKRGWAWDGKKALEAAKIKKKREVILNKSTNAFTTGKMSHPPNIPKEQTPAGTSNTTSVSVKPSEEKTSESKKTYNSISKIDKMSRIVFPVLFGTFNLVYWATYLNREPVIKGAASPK
Sequence of α5β3γ2 GABAA subtype receptor (P28472 26-473 partner): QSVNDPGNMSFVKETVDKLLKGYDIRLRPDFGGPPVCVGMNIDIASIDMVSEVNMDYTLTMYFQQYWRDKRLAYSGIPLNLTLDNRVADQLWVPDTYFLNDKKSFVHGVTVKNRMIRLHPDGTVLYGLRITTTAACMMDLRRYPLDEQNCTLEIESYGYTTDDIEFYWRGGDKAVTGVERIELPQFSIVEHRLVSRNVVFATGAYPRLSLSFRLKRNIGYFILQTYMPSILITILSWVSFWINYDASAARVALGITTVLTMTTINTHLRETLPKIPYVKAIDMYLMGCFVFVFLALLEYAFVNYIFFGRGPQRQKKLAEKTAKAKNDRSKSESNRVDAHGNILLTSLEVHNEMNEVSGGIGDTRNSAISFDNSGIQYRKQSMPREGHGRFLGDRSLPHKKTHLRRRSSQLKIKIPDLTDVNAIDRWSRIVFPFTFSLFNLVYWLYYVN
Sequence of α5β3γ2 GABAA subtype receptor (P18507 40-475): as the sequence (P18507 40-475) above
Excerpt: as §1, §2, §3, §4, §5

Series [5] has as its system rats. The series can be described thus: bicuculline seizure threshold test. It is filed as in vivo. The conditions noted are these: rat; proconvulsant activity; NS = no statistically significant effect versus vehicle. An excerpt:
(§6) A statistically significant effect in the spatial water maze, step-down passive avoidance, spontaneous locomotor activity, Porsolt swim test, or the elevated plus maze models is defined as p<0.05 using a valid parametric statistical test. Likewise, no statistically significant effect is defined in these models as p>0.05 using a valid parametric statistical test. No statistically significant effect for either of the seizure threshold models is defined as a decrease of less than 25% in the seizure threshold in the presence of a seizure inducing drug or a result that is not significant at the p<0.05 level.
This test provides a measure of whether the test compound is proconvulsant by measuring whether the test compound produces any change in the dose of the seizure inducing drug, bicuculline, needed to elicit seizures in rats. […]
Adult male Sprague-Dawley rats (175-300 g) are weighed and placed in a rat restrainer. […] Patency of catheter placement is tested by backflow of venous blood and ready infusion of less than 2 ml of saline solution. […]
Test compound is infused 5 minutes prior to the start of bicuculline infusion. […] The time elapsed from the start of bicuculline infusion to first myoclonic jerk (first head/neck twitch), the initiation of full myoclonus (writhing), and final forelimb extension is all recorded using a digital stopwatch. […]

The test system of series [6] is rats. In words: step-down passive avoidance. Conditions: rat, IV; cognitive enhancement (Table X). It is filed as in vivo.
Excerpt: as §6
In step-down passive avoidance a rat is placed on a platform located in the center of an electrified grid floor that is contained within a large (45 cm×45 cm×50 cm) white translucent Plexiglas® enclosure. The natural inclination of the rat is to step off the platform and investigate its surroundings. […] Each time the animal steps off the platform it receives a mild foot shock of 2 mAmps×6 sec. Following each shock the animal is removed from the box, placed in its cage for a one minute inter-trial interval, and then returned to the platform. The latency to step down on each trial, the number of trials taken to reach criterion during training and the retention latency are collected.
Testing is conducted approximately 24 hrs. after training. Drug-free animals are placed on the platform in the box in which they will have been trained and the latency to step down onto the grid floor is recorded for one trial as a measure of memory retention.

Series [7] concerns the target GABAA receptors (Ro15-1788 / benzodiazepine site), rat cortex membranes. In words: Ro15-1788 competition binding assay, rat cortex membranes. The conditions noted are these: displacement of 3H Ro15-1788, rat cortex membranes. For orientation: Displacement assays read how much labelled ligand stays bound in the presence of the test substance.
Description: Rat cortex membranes are prepared by homogenizing one or two previously frozen rat cortexes in 30 ml of 25 mM Tris Buffer, pH 7.4. The homogenate is centrifuged for 10 minutes at 500×g. The supernatant is then transferred to a clean centrifuge tube and the pellet discarded. The supernatant is spun for 20 minutes at 48,000×g. The supernatant from this spin is discarded and the pellet is resuspended in 30 ml of 25 mM Tris Buffer, pH 7.4 and centrifuged for an additional 10 minutes at 48,000×g. The supernatant from the final spin is discarded and the membrane pellet is resuspended in 100 mL Tris buffer per gram of cortex used.
The cortex membrane preparation is used to perform either percent inhibition or competition binding assays. In order to determine percent inhibition 300 μl of resuspended membranes are mixed with 200 μl ^3H labeled Ro15-1788 (final concentration 2.5 nM) and incubated for 1 hour on ice in the presence of 2 μl test compound in DMSO (final concentration 4 μM). Membranes are harvested onto untreated filtermats. The filtermats are dried and the ^3H Ro15-1788 signal is counted in a scintillation counter. Nonspecific binding is determined by displacement of ^3H Ro15-1788 with 10 μM Diazepam (RBI) or any other compound known to bind tightly at the benzodiazepine site.
Ki values are calculated according to the Cheng-Prussof equation.
Series [8] concerns rats. The series can be described thus: Porsolt forced swim test. Conditions: rat, administered IV; antidepressant effect. It is filed as in vivo.
Excerpt: as §6
The effects measured in this model have been correlated to antidepressant efficacy for drugs. The paradigm of this model is that an effective antidepressant compound will cause a rat to make greater attempts to escape a water-filled cylinder than a rat given vehicle only.
Animals used in this study were non-naive male Sprague Dawley Rats (SASCO, St. Louis) weighing between 280-350 grams. The test apparatus consists of 6 clear Plexiglas cylinders 40 cm high×19 cm wide. Cylinders are filled to 18 cm with 25° C. water. Each rat is placed in a cylinder for a 15 minute training session. Following either subchronic or acute dosing of either vehicle (0.5% methylcellulose) of compound, animals are brought back 24 hours later for a 5 minute test session. These test session is videotaped for later scoring.
Subchronic dosing consists of administering drug three times in the 24-hour period between training and testing. The drug is administered 24 hrs., 5 hrs., and 1 hr. prior to the test session. Acute dosing consists of administering the drug once, 1 hour prior to the test session. Scoring is done using a time-sampling computer program written in Visual Basic and run in DOS. […] These sampling score are then converted into percentages of the test session.

The test system of series [9] is rats. The series can be described thus: spontaneous locomotor activity. It is filed as in vivo. Conditions: rat, IV; sedation as side effect (Tables V and IX); NS = no statistically significant effect over dose range.
Excerpt: as §6
Spontaneous locomotor activity can be measured to determine sedative effects of compounds. Locomotor activity is measured in eight computerized Digiscan-16 Animal Activity Monitors (Omnitech Electronics, Columbus, Ohio) equipped with 48 infrared photocell emitters and detectors. Each box is constructed of Plexiglas sides and floor. Horizontal activity is detected by a set of horizontal sensors on the front to back walls and a second group of sensors on the side to side walls located 5 cm above the cage floor. Vertical activity is detected by a third set of sensors on the side to side walls located 13.5 cm above the cage floor. The rats are tested in the presence of white noise (62 dB) and red light (60 watt). […]

Setting [10] is: oocyte electrophysiology EC50 α2β3γ2, Xenopus laevis oocytes.
Setting [11] is: oocyte electrophysiology EC50 α1β2γ2, Xenopus laevis oocytes, human subunits, GABA at EC10.
Where [12] appears, read: oocyte electrophysiology EC50 α3β3γ2, Xenopus laevis oocytes.
[13] abbreviates: oocyte electrophysiology EC50 α5β3γ2, Xenopus laevis oocytes.

Sequence of α2β3γ2 GABAA subtype receptor (P47869 29-451): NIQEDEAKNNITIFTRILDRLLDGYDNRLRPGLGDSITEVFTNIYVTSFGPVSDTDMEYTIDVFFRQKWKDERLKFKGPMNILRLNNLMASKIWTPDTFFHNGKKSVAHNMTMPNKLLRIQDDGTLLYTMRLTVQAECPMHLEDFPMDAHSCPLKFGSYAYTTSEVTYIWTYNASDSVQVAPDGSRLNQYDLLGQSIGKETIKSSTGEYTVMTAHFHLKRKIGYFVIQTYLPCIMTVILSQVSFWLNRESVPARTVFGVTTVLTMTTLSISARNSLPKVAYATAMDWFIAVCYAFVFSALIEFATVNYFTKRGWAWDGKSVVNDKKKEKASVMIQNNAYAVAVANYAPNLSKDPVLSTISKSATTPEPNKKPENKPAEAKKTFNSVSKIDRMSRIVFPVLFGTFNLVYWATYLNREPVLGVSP
Sequence of α2β3γ2 GABAA subtype receptor (P28472 26-473 partner): as the sequence (P28472 26-473 partner) above
Sequence of α2β3γ2 GABAA subtype receptor (P18507 40-475): as the sequence (P18507 40-475) above
Sequence of α3β3γ2 GABAA subtype receptor (P34903 29-492): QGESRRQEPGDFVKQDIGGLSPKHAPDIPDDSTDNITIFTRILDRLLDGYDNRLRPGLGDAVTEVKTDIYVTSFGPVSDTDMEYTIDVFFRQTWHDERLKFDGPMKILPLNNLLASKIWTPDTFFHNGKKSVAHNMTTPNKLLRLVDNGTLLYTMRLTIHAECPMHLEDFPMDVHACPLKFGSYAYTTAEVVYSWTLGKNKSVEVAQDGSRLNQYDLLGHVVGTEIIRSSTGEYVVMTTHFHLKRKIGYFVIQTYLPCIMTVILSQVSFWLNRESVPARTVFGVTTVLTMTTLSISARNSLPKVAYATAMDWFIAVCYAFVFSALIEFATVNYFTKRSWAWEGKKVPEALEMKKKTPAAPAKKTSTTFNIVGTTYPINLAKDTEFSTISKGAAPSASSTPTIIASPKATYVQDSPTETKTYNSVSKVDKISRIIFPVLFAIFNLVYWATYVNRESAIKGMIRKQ
Sequence of α3β3γ2 GABAA subtype receptor (P28472 26-473 partner): as the sequence (P28472 26-473 partner) above
Sequence of α3β3γ2 GABAA subtype receptor (P18507 40-475): as the sequence (P18507 40-475) above

As usually defined, the EC50 is the midpoint of the concentration-response curve. The term Ki denotes the dissociation constant of the complex between target and ligand, obtained from inhibition or displacement. Regarding `O=C1C2C=Nc3ccccc3C2=NN1c1ccccc1` (centres unmarked) [CGS 8216, reference compound], the 50% effective concentration (EC50) in series [1] (setting [10]) was 2 nM; in series [2] (setting [11]), 0.7 nM; in [3] (setting [12]) it was 2 nM; in series [4] (setting [13]) it was 1 nM. The “oocyte electrophysiology maximum potentiation α1β2γ2” value in series [2] (Xenopus laevis oocytes, human subunits, GABA at EC10, negative = inverse agonism) is on record as −26%. For the same molecule, the “oocyte electrophysiology maximum potentiation α5β3γ2” value in series [4] (Xenopus laevis oocytes, negative = inverse agonism) is given as −39%. Also, the “bicuculline seizure threshold, mean percent decrease in seizure threshold over the dose range studied” value with rats [5] is 50%. Also, the “cognitive model: step-down passive avoidance, minimal efficacious dose” value in the series with rats [6] was determined as 0.06 mg/kg. This molecule also showed a Ki in series [7] of 0.2 nM.

In the case of `CC(C)(C)OC(=O)c1ncn2c1C1CCCN1C(=O)c1c(Br)cccc1-2` (centres unmarked) [Ro16-6028, reference compound], the “Porsolt swim test, minimal efficacious dose” value in the series on rats [8] is 1 mg/kg. Further, the “spontaneous locomotor activity, minimal efficacious dose” value in the series on rats [9] is recorded as 0.06 mg/kg.

`CCOc1ccc(NC(=O)c2c[nH]c3c2C(=O)CCC3)cc1` [compound 3]: the “Porsolt swim test, minimal efficacious dose” value in the series with rats [8] amounted to 20 mg/kg. In addition, the “spontaneous locomotor activity, minimal efficacious dose” value in the series on rats [9] was determined as 4 mg/kg. Besides, the EC50 in series [1] (Xenopus laevis oocytes, read-out: oocyte electrophysiology EC50 α2β3γ2) stood at 108 nM; in series [1] (setting [10]) it was 12 nM; in [2] (Xenopus laevis oocytes, human subunits, GABA at EC10, read-out: oocyte electrophysiology EC50 α1β2γ2), 107 nM; in series [2] (setting [11]), 33 nM; in series [3] (Xenopus laevis oocytes, read-out: oocyte electrophysiology EC50 α3β3γ2) it was 133 nM; in [3] (setting [12]) it was 23 nM. Moreover, the EC50 in [4] (Xenopus laevis oocytes, read-out: oocyte electrophysiology EC50 α5β3γ2) came to 186 nM; in [4] (setting [13]) it was 36 nM. In addition, the figures for the Emax in series [1] (read-out: oocyte electrophysiology maximum potentiation α2β3γ2) and in series [2] (read-out: oocyte electrophysiology maximum potentiation α1β2γ2) were 52% and 26%, respectively.
